{"source": "paper PMC5218480", "about": "(PLoS ONE, 2017)", "system": "MV-4-11 cells", "experiment": "Gene expression microarray analysis (Affymetrix PrimeView) and GSEA", "format": "cell-based, human", "design": "RFU PODN (11730768_x_at) / Fold change /veh PODN (11730768_x_at) / RFU LINC00158 (11744669_a_at) / Fold change /veh LINC00158 (11744669_a_at) / RFU DUSP10 (11751237_a_at) / Fold change /veh DUSP10 (11751237_a_at) / RFU ID3 (11757404_x_at) / Fold change /veh ID3 (11757404_x_at) / RFU PLEKHG5 (11737974_s_at) / Fold change /veh PLEKHG5 (11737974_s_at) / RFU LRRC4B (11730491_at) / Fold change /veh LRRC4B (11730491_at) / RFU GIMAP4 (11747438_a_at) / Fold change /veh GIMAP4 (11747438_a_at) / RFU KRT8 (11758183_x_at) / Fold change /veh KRT8 (11758183_x_at) / RFU CNN1 (11734310_a_at) / Fold change /veh CNN1 (11734310_a_at) / RFU VPS37D (11726825_at) / Fold change /veh VPS37D (11726825_at) / RFU C10orf10 (11716522_x_at) / Fold change /veh C10orf10 (11716522_x_at) / RFU KIR2DL2 /// KIR2DL4 /// KIR2DL5A /// KIR2DL5B /// KIR2DS1 /// KIR2DS2 /// KIR2DS3 /// KIR2DS4 /// KIR3DL3 /// KIR3DL3 /// KIR3DS1 (11738374_at) / Fold change /veh KIR2DL2 /// KIR2DL4 /// KIR2DL5A /// KIR2DL5B /// KIR2DS1 /// KIR2DS2 /// KIR2DS3 /// KIR2DS4 /// KIR3DL3 /// KIR3DL3 /// KIR3DS1 (11738374_at) / RFU C1QL1 (11718748_at) / Fold change /veh C1QL1 (11718748_at) / RFU TMPRSS4 (11747572_a_at) / Fold change /veh TMPRSS4 (11747572_a_at) / RFU HAMP (11756126_x_at) / Fold change /veh HAMP (11756126_x_at) / RFU RNFT2 (11725882_a_at) / Fold change /veh RNFT2 (11725882_a_at) / RFU NR4A2 (11747474_a_at) / Fold change /veh NR4A2 (11747474_a_at) / RFU ABCC12 (11746883_a_at) / Fold change /veh ABCC12 (11746883_a_at) / RFU TMEM136 (11760407_x_at) / Fold change /veh TMEM136 (11760407_x_at) / RFU CLDN22 /// WWC2 (11732394_at) / Fold change /veh CLDN22 /// WWC2 (11732394_at) / RFU HLA-DPB1 (11760878_x_at) / Fold change /veh HLA-DPB1 (11760878_x_at) / RFU SPINT1 (11716480_a_at) / Fold change /veh SPINT1 (11716480_a_at) / RFU GAP43 (11754022_s_at) / Fold change /veh GAP43 (11754022_s_at) / RFU A4GNT (11735810_at) / Fold change /veh A4GNT (11735810_at) / RFU PRB3 (11715151_x_at) / Fold change /veh PRB3 (11715151_x_at) / RFU TUBB4B (11761932_at) / Fold change /veh TUBB4B (11761932_at) / RFU CAPN14 (11732068_a_at) / Fold change /veh CAPN14 (11732068_a_at) / RFU TMCC2 (11721928_a_at) / Fold change /veh TMCC2 (11721928_a_at) / RFU IRGQ (11745062_a_at) / Fold change /veh IRGQ (11745062_a_at) / RFU FAM174B (11720279_a_at) / Fold change /veh FAM174B (11720279_a_at) / RFU TMPRSS4 (11748680_a_at) / Fold change /veh TMPRSS4 (11748680_a_at) / RFU FAM212B (11763350_a_at) / Fold change /veh FAM212B (11763350_a_at) / RFU PLEKHG5 (11743358_a_at) / Fold change /veh PLEKHG5 (11743358_a_at) / RFU ZSCAN30 (11745921_a_at) / Fold change /veh ZSCAN30 (11745921_a_at) / RFU CMKLR1 (11741424_a_at) / Fold change /veh CMKLR1 (11741424_a_at) / RFU LOC101060620 /// MAPK8IP1 (11723275_at) / Fold change /veh LOC101060620 /// MAPK8IP1 (11723275_at) / RFU SPTSSB (11747773_x_at) / Fold change /veh SPTSSB (11747773_x_at) / RFU PRSS12 (11739890_at) / Fold change /veh PRSS12 (11739890_at) / RFU BIN1 (11741810_x_at) / Fold change /veh BIN1 (11741810_x_at) / RFU WNT11 (11732464_a_at) / Fold change /veh WNT11 (11732464_a_at) / RFU C10orf10 (11716521_a_at) / Fold change /veh C10orf10 (11716521_a_at) / RFU C5orf56 (11738089_at) / Fold change /veh C5orf56 (11738089_at) / RFU CYB561 (11721691_x_at) / Fold change /veh CYB561 (11721691_x_at) / RFU ANKRD19P (11752326_a_at) / Fold change /veh ANKRD19P (11752326_a_at) / RFU OR2T12 /// OR2T33 /// OR2T8 (11738714_s_at) / Fold change /veh OR2T12 /// OR2T33 /// OR2T8 (11738714_s_at) / RFU VCAN (11748164_a_at) / Fold change /veh VCAN (11748164_a_at) / RFU JSRP1 (11732532_at) / Fold change /veh JSRP1 (11732532_at) / RFU KRTAP10-11 (11738290_x_at) / Fold change /veh KRTAP10-11 (11738290_x_at) / RFU MYO3A (11730013_a_at) / Fold change /veh MYO3A (11730013_a_at) / RFU EBF3 (11725865_a_at) / Fold change /veh EBF3 (11725865_a_at) / RFU CAMK2N1 (11719241_x_at) / Fold change /veh CAMK2N1 (11719241_x_at) / RFU C5orf56 (11738088_a_at) / Fold change /veh C5orf56 (11738088_a_at) / RFU OLFML3 (11715873_a_at) / Fold change /veh OLFML3 (11715873_a_at) / RFU LOC100653217 /// NTM (11731650_a_at) / Fold change /veh LOC100653217 /// NTM (11731650_a_at) / RFU MAPK11 (11762145_a_at) / Fold change /veh MAPK11 (11762145_a_at) / RFU FIZ1 (11724087_x_at) / Fold change /veh FIZ1 (11724087_x_at) / RFU OASL (11726364_x_at) / Fold change /veh OASL (11726364_x_at) / RFU SOX15 (11748057_x_at) / Fold change /veh SOX15 (11748057_x_at) / RFU CD79A (11719716_a_at) / Fold change /veh CD79A (11719716_a_at) / RFU HIST1H1D (11736915_at) / Fold change /veh HIST1H1D (11736915_at) / RFU CASKIN2 (11723855_a_at) / Fold change /veh CASKIN2 (11723855_a_at) / RFU LOC730098 (11760151_x_at) / Fold change /veh LOC730098 (11760151_x_at) / RFU OR4N2 (11742367_at) / Fold change /veh OR4N2 (11742367_at) / RFU PRRT2 (11749266_a_at) / Fold change /veh PRRT2 (11749266_a_at) / RFU SNX32 (11753110_a_at) / Fold change /veh SNX32 (11753110_a_at) / RFU CDHR5 (11726645_a_at) / Fold change /veh CDHR5 (11726645_a_at) / RFU RCAN1 (11760418_a_at) / Fold change /veh RCAN1 (11760418_a_at) / RFU FAM167A (11723789_a_at) / Fold change /veh FAM167A (11723789_a_at) / RFU FAM26E (11764081_at) / Fold change /veh FAM26E (11764081_at) / RFU ISYNA1 (11749810_s_at) / Fold change /veh ISYNA1 (11749810_s_at) / RFU ACY1 (11761880_at) / Fold change /veh ACY1 (11761880_at) / RFU 11764098_at / Fold change /veh 11764098_at / RFU SAMD14 (11745864_x_at) / Fold change /veh SAMD14 (11745864_x_at) / RFU NPB (11741838_a_at) / Fold change /veh NPB (11741838_a_at) / RFU TMPRSS6 (11731388_a_at) / Fold change /veh TMPRSS6 (11731388_a_at) / RFU KRTAP10-2 (11738614_at) / Fold change /veh KRTAP10-2 (11738614_at) / RFU ARHGAP8 /// PRR5-ARHGAP8 (11727945_x_at) / Fold change /veh ARHGAP8 /// PRR5-ARHGAP8 (11727945_x_at) / RFU KRTAP5-7 /// NADSYN1 (11734609_at) / Fold change /veh KRTAP5-7 /// NADSYN1 (11734609_at) / RFU RASL12 (11751679_a_at) / Fold change /veh RASL12 (11751679_a_at) / RFU CDKN2B (11736163_a_at) / Fold change /veh CDKN2B (11736163_a_at) / RFU PRF1 (11729649_at) / Fold change /veh PRF1 (11729649_at) / RFU, ZNF638 /// ZNF638-IT1 / Fold change vs veh, ZNF638 /// ZNF638-IT1 / RFU, PANK3 / Fold change vs veh, PANK3 / RFU, SH3YL1 / Fold change vs veh, SH3YL1 / RFU, ZEB2 / Fold change vs veh, ZEB2 / RFU, NRIP1 / Fold change vs veh, NRIP1 / RFU, PTTG1IP / Fold change vs veh, PTTG1IP / RFU, CAPN2 / Fold change vs veh, CAPN2 / RFU, MED14 / Fold change vs veh, MED14 / RFU, SNORA58 / Fold change vs veh, SNORA58 / RFU, C1orf63 / Fold change vs veh, C1orf63 / RFU, LRRFIP1 / Fold change vs veh, LRRFIP1 / RFU, NDUFAF7 / Fold change vs veh, NDUFAF7 / RFU, SLC12A2 / Fold change vs veh, SLC12A2 / RFU, IBTK / Fold change vs veh, IBTK / RFU, ESF1 / Fold change vs veh, ESF1 / Fold change vs veh, TMEM50B / RFU, TAOK1 / Fold change vs veh, TAOK1 / RFU, ACBD3 / Fold change vs veh, ACBD3 / RFU, TMA16 / Fold change vs veh, TMA16 / RFU, RWDD3 / Fold change vs veh, RWDD3 / RFU, BCAT1 / Fold change vs veh, BCAT1 / RFU, EDEM3 / Fold change vs veh, EDEM3 / RFU, TMEM33 / Fold change vs veh, TMEM33 / RFU, WDR75 / Fold change vs veh, WDR75 / RFU, AHCTF1 / Fold change vs veh, AHCTF1 / RFU, TFRC / Fold change vs veh, TFRC / RFU, ZDHHC17 / Fold change vs veh, ZDHHC17 / RFU, NOM1 / Fold change vs veh, NOM1 / RFU, ARL8B / Fold change vs veh, ARL8B / RFU, ZBTB11 / Fold change vs veh, ZBTB11 / RFU, TAMM41 / Fold change vs veh, TAMM41 / RFU, KIAA1704 /// LOC100996395 / Fold change vs veh, KIAA1704 /// LOC100996395 / RFU, ING1 / Fold change vs veh, ING1 / RFU, TRMT61B / Fold change vs veh, TRMT61B / RFU, FUBP3 / Fold change vs veh, FUBP3 / RFU, TP53 / Fold change vs veh, TP53 / RFU, TNKS2 / Fold change vs veh, TNKS2 / RFU, ZFP14 / Fold change vs veh, ZFP14 / RFU, ACTR2 / Fold change vs veh, ACTR2 / RFU, PPP3R1 / Fold change vs veh, PPP3R1 / RFU, PIK3R1 / Fold change vs veh, PIK3R1 / RFU, HNRNPA1 / Fold change vs veh, HNRNPA1 / RFU, RNF170 / Fold change vs veh, RNF170 / RFU, ZNF28 / Fold change vs veh, ZNF28 / RFU, RNGTT / Fold change vs veh, RNGTT / RFU, OGT / Fold change vs veh, OGT / RFU, BRD1 / Fold change vs veh, BRD1 / RFU, MARS / Fold change vs veh, MARS / RFU, ZNF655 / Fold change vs veh, ZNF655 / RFU, FAHD1 / Fold change vs veh, FAHD1 / RFU, BDP1 / Fold change vs veh, BDP1 / RFU, LRRCC1 / Fold change vs veh, LRRCC1 / RFU, ARID1A / Fold change vs veh, ARID1A / RFU, ZNF146 / Fold change vs veh, ZNF146 / RFU, ZNF330 / Fold change vs veh, ZNF330 / RFU, GPN3 / Fold change vs veh, GPN3 / RFU, C9orf123 / Fold change vs veh, C9orf123 / RFU, N4BP2L2 / Fold change vs veh, N4BP2L2 / RFU, ARFIP1 / Fold change vs veh, ARFIP1 / RFU, FAM179B / Fold change vs veh, FAM179B / RFU, BCL10 / Fold change vs veh, BCL10 / RFU, UHRF1BP1L / Fold change vs veh, UHRF1BP1L / RFU, BET1 / Fold change vs veh, BET1 / RFU, CNOT2 / Fold change vs veh, CNOT2 / RFU, ZNF268 / Fold change vs veh, ZNF268 / Fold change vs veh, ZNF507 / RFU, DGCR2 / Fold change vs veh, DGCR2 / RFU, WDSUB1 / Fold change vs veh, WDSUB1 / Fold change vs veh, HSP90B1 /// MIR3652 / RFU, ADSS / Fold change vs veh, ADSS / RFU, GK / Fold change vs veh, GK / RFU, ZNF148 / Fold change vs veh, ZNF148 / RFU, TAF9 / Fold change vs veh, TAF9 / RFU, SLC1A5 / Fold change vs veh, SLC1A5 / RFU, SLMO2 / Fold change vs veh, SLMO2 / RFU, ABCC4 / Fold change vs veh, ABCC4 / RFU, LOC101060439 /// RAP1B / Fold change vs veh, LOC101060439 /// RAP1B / RFU, RFX7 / Fold change vs veh, RFX7 / RFU, GTPBP10 / Fold change vs veh, GTPBP10 / RFU, CNEP1R1 / Fold change vs veh, CNEP1R1 / RFU, BIVM-ERCC5 /// ERCC5 / Fold change vs veh, BIVM-ERCC5 /// ERCC5 / RFU, ILF3 / Fold change vs veh, ILF3 / RFU 11762660_at / Fold change /veh 11762660_at / RFU VCAN (11757783_s_at) / Fold change /veh VCAN (11757783_s_at) / RFU DDX43 (11728927_at) / Fold change /veh DDX43 (11728927_at) / RFU KRT8 (11758188_x_at) / Fold change /veh KRT8 (11758188_x_at) / RFU NKD1 (11759106_at) / Fold change /veh NKD1 (11759106_at) / RFU SRD5A1 (11742802_a_at) / Fold change /veh SRD5A1 (11742802_a_at) / RFU TPSAB1 /// TPSB2 (11721975_s_at) / Fold change /veh TPSAB1 /// TPSB2 (11721975_s_at) / RFU GSTM3 (11746129_a_at) / Fold change /veh GSTM3 (11746129_a_at) / RFU IL23R (11737362_x_at) / Fold change /veh IL23R (11737362_x_at) / RFU TMEM51 (11727254_a_at) / Fold change /veh TMEM51 (11727254_a_at) / RFU PIWIL2 (11732686_x_at) / Fold change /veh PIWIL2 (11732686_x_at) / RFU ORM1 (11744905_x_at) / Fold change /veh ORM1 (11744905_x_at) / RFU CCDC152 (11743942_at) / Fold change /veh CCDC152 (11743942_at) / RFU ECM1 (11717891_a_at) / Fold change /veh ECM1 (11717891_a_at) / RFU IL23R (11748794_a_at) / Fold change /veh IL23R (11748794_a_at) / RFU TNFAIP8L3 (11732012_x_at) / Fold change /veh TNFAIP8L3 (11732012_x_at) / RFU MBOAT4 (11741988_at) / Fold change /veh MBOAT4 (11741988_at) / RFU 11764193_at / Fold change /veh 11764193_at / RFU TMEM53 (11763286_at) / Fold change /veh TMEM53 (11763286_at) / RFU MAGEB2 (11727129_at) / Fold change /veh MAGEB2 (11727129_at) / RFU TMEM200A (11744735_a_at) / Fold change /veh TMEM200A (11744735_a_at) / RFU CCDC152 (11751479_a_at) / Fold change /veh CCDC152 (11751479_a_at) / RFU FAM211A (11726209_a_at) / Fold change /veh FAM211A (11726209_a_at) / RFU RGS16 (11746705_a_at) / Fold change /veh RGS16 (11746705_a_at) / RFU VCAN (11755009_s_at) / Fold change /veh VCAN (11755009_s_at) / RFU RHOB (11743442_s_at) / Fold change /veh RHOB (11743442_s_at) / RFU RGS16 (11720943_a_at) / Fold change /veh RGS16 (11720943_a_at) / RFU RGS16 (11720944_at) / Fold change /veh RGS16 (11720944_at) / RFU, VPS4B / Fold change vs veh, VPS4B / RFU, CREB1 / Fold change vs veh, CREB1 / RFU, DNAJC13 / Fold change vs veh, DNAJC13 / RFU, GNAQ / Fold change vs veh, GNAQ / RFU, CDK5R1 / Fold change vs veh, CDK5R1 / RFU, ZRANB3 / Fold change vs veh, ZRANB3 / RFU, CUL4A / Fold change vs veh, CUL4A / RFU, CCNY / Fold change vs veh, CCNY / RFU, UFL1 / Fold change vs veh, UFL1 / RFU, COG3 / Fold change vs veh, COG3 / RFU, DIAPH2 / Fold change vs veh, DIAPH2 / RFU, SKA2 / Fold change vs veh, SKA2 / RFU, AFF3 / Fold change vs veh, AFF3 / RFU, LMF1 / Fold change vs veh, LMF1 / RFU, IPO11 / Fold change vs veh, IPO11 / RFU, DFFB / Fold change vs veh, DFFB / RFU, FOXP1 / Fold change vs veh, FOXP1 / RFU, CARD8 / Fold change vs veh, CARD8 / RFU, STRN3 / Fold change vs veh, STRN3 / RFU, ADK / Fold change vs veh, ADK / RFU, RASSF2 / Fold change vs veh, RASSF2 / RFU, WIPF1 / Fold change vs veh, WIPF1 / RFU, LARP1B / Fold change vs veh, LARP1B / RFU, RASA1 / Fold change vs veh, RASA1 / RFU, RB1 / Fold change vs veh, RB1 / RFU, PPFIA1 / Fold change vs veh, PPFIA1 / RFU, MAT2A / Fold change vs veh, MAT2A / RFU, CCT5 / Fold change vs veh, CCT5 / RFU, WDR92 / Fold change vs veh, WDR92 / RFU, CUX1 / Fold change vs veh, CUX1 / RFU, TTC7A / Fold change vs veh, TTC7A / RFU, TMEM135 / Fold change vs veh, TMEM135 / RFU, DEPTOR / Fold change vs veh, DEPTOR / RFU, CPM / Fold change vs veh, CPM / RFU, DNAJB6 / Fold change vs veh, DNAJB6 / RFU, CACNA2D3 / Fold change vs veh, CACNA2D3 / RFU, DTX4 / Fold change vs veh, DTX4 / RFU, TFCP2 / Fold change vs veh, TFCP2 / RFU, GMCL1 /// GMCL1P1 / Fold change vs veh, GMCL1 /// GMCL1P1 / RFU, AEBP2 / Fold change vs veh, AEBP2 / RFU, SNHG1 /// SNORD22 /// SNORD25 /// SNORD26 /// SNORD27 /// SNORD28 /// SNORD29 /// SNORD31 / Fold change vs veh, SNHG1 /// SNORD22 /// SNORD25 /// SNORD26 /// SNORD27 /// SNORD28 /// SNORD29 /// SNORD31 / Fold change (Aza/veh), C12orf56 (ProbeSet 11735607_a_at) / Fold change (ACY-1035/veh), C12orf56 (ProbeSet 11735607_a_at) / Fold change (Aza/veh), FGFR1OP (ProbeSet 11751329_s_at) / Fold change (ACY-1035/veh), FGFR1OP (ProbeSet 11751329_s_at) / Fold change (Aza/veh), VPS36 (ProbeSet 11739960_a_at) / Fold change (ACY-1035/veh), VPS36 (ProbeSet 11739960_a_at) / RFU SYPL1 (11715823_x_at) / Fold change /veh SYPL1 (11715823_x_at) / RFU IGFBP7 (11715501_s_at) / Fold change /veh IGFBP7 (11715501_s_at) / RFU REEP3 (11722064_at) / Fold change /veh REEP3 (11722064_at) / RFU IGLL1 (11728026_x_at) / Fold change /veh IGLL1 (11728026_x_at): dose or concentration left out as unconfirmed", "conditions": "MV-4-11 cells, 48 hours"}
{"smiles": "Nc1ccc(-c2cccs2)cc1NC(=O)c1ccc2c(c1)cc(C1CC1)n2CCN1CCOCC1", "note": "[ACY-1035]", "values": [{"measurement": "RFU KRTAP10-2 (11738614_at)", "result": 11.58, "unit": "RFU"}]}
